Test results taken from US4434162A, “Phosphonic acid ester, pharmaceutical compositions containing the same and method of using the same” (Kanebo, Ltd., priority 1982, dated 1984).
“Also recorded” adds a separate entry of the source.

Columns and labels:
dogs = assay: Increase in coronary blood flow upon intravenous administration into dogs; type: in vivo, dog; conditions: for Increase in coronary blood flow (Δ% ± standard error): anaesthetized dogs, intravenous (femoral vein), dose 0.1 mg/kg, circumflex branch of left coronary; for activity in increasing coronary blood flow (in words): comparison with other esters
Protocol: (b) Intravenous administration into dogs.
Increase in coronary blood flow upon intravenous administration of a test compound into dogs was tested. Compounds tested were 4-(benzothiazol-2-yl)benzylphosphonic acid ethyl isopropyl ester and, as a control, diltiazem, 4-(benzothiazol-2-yl)benzylphosphonic acid diethyl ester and 2-(benzothiazol-2-yl)-5-picolinylphosphonic acid diethyl ester.
Dogs weighing 10 to 13 kg were anaesthetized with pentobarbital sodium (35 mg/kg, intraperitoneal) and, under supportive respiration, a thoractomy was performed by removing the fourth left rib. The pericardial membrane was then incised to expose the heart. The test compound was dissolved in 50% aqueous ethanol and injected into the femoral vein. The blood flow through circumflex branch of left coronary was measured before and after the administration of drugs with an electromagnetic flowmeter (Nihon Kohden, MF-26).

[1] = test system: isolated guinea pig heart; assay: Action on coronary flow of the isolated guinea pig heart (Langendorff); conditions: Cavia porcellus, 100 γ/ml in propylene glycol, 0.1 ml infused at 0.1 ml/min, read-out: Increase in coronary flow (Δ% ± standard error)
Protocol: (a) Action on the isolated guinea pig heart.
Male guinea-pigs with body weights from 400 to 500 g were slaughtered and promptly thoractomized. After the ascending aorta was cannulated, the heart was enucleated. By the method of Langendorff, this isolated heart was perfused with the Krebs-Henseleit fluid oxygenated with a gaseous mixture of 95% O2 and 5% CO2 at the fluid temperature of 34±1° C. and the perfusion pressure of 60 cm H2 O, and the test compound was infused. The coronary flows before and after infusion were measured and the percent gain in coronary flow was obtained. The coronary flow was measured with a square-wave electromagnetic flowmeter (Nihon Kohden, MF-26) with an extracorporeal probe (Nihon Kohden, FE) set at the top of the cannula and recorded with a multipurpose polygraph (Nihon Kohden, RM-85). The test compound was dissolved in propylene glycol to a concentration of 100 γ/ml and 0.1 ml of the solution was infused at the rate of 0.1 ml/min. For reference, the corresponding data on diltiazem is also shown.

male ddY mice = assay: Acute toxicity test in mice; conditions: mouse, in vivo; listed as compound of the invention
Protocol: (§1) An acute toxicity test was carried out in male ddY mice (in groups of 5 animals, body weights 20.congruent.2 g) by the intraperitoneal administration of a test compound. The LD50 values were calculated by the method of Weil based on the number of deaths within 72 hours.

[2] = Acute toxicity test in mice; conditions: mouse, in vivo, ip; male ddY mice, intraperitoneal; deaths within 72 hours, method of Weil
Protocol: as §1

Compound | Increase in coronary blood flow (Δ% ± standard error) (dogs) | activation at 100 µg/mL, 0.01 mg [1] | acute toxicity (in words) (male ddY mice) | LD50 at 72 h [2] | activity in increasing coronary blood flow (in words) (dogs; listed as asymmetric type ester of the invention) | activity in increasing coronary blood flow (in words) (dogs; listed as compound of the invention)
CCOP(=O)(Cc1ccc(-c2nc3ccccc3s2)nc1)OCC [2-(benzothiazol-2-yl)-5-picolinylphosphonic acid diethyl ester, reference compound] | 83.0 ± 12.3 Δ% |  |  |  |  | 
CCOP(=O)(Cc1ccc(-c2nc3ccccc3s2)cc1)OCC [4-(benzothiazol-2-yl)benzylphosphonic acid diethyl ester, reference compound] | 82.2 ± 5.0 Δ% |  |  |  |  | 
CCOP(=O)(Cc1ccc(-c2nc3ccccc3s2)cc1)OC(C)C (centres unmarked) [4-(benzothiazol-2-yl)benzylphosphonic acid isopropyl ethyl ester] | 75.3 ± 2.9 Δ% | 76.9 ± 24.4% | low acute toxicity; also recorded: lower acute toxicity than such compound | 1790 mg/kg | high activity in increasing coronary blood flow in comparison with other asymmetric and cyclic esters of this type | somewhat lower in its activity of increasing coronary blood flow than the corresponding diethyl ester compound
COc1ccc([C@@H]2Sc3ccccc3N(CCN(C)C)C(=O)[C@@H]2OC(C)=O)cc1 [Diltiazem, diltiazem, reference compound] | 105.6 ± 14.1 Δ% | 66 ± 7.1% |  | 177 mg/kg |  | 
